The values below come from patent US8648081B2 (Eli Lilly and Company, priority 2011, dated 2014).

This assay relates to Lone star tick larvae (Amblyomma americanum). Put plainly: In Vitro Larval Immersion Microassay (LIM). As to conditions: read-out: % Efficacy (percent larval mortality). As for the experimental part: In Vitro Larval Immersion Microassay (LIM)
The larval immersion microassay may be conducted as described in White, et al., J. Med. Entomol. […] Briefly, experimental test articles are formulated in dimethylsulfoxide (DMSO) to prepare a stock solution at a concentration of 10 mM. […] Approximately 30-50 Lone star tick larvae (Amblyomma americanum) are submerged into each well containing experimental test articles. After a 30 minute immersion period, larvae are removed with a wide-bore pipette tip in 0.05 ml of fluid, dispensed into a commercial paper tissue biopsy bag which is sealed at the top with a plastic dialysis clip, inverted and allowed to air dry for 60 minutes. Bags containing larvae are then incubated at approximately 27 degrees Celsius and >90% relative humidity. After 24 hours, bags are opened, live and dead larvae are counted and percent larval mortality is calculated as follows: % Efficacy=(# dead larvae)/(# total larvae)×100.

For orientation: mortality means the share of the test organisms that died. `O=C(N[C@@H]1CCNC1=O)c1sc(C2=NOC(c3cc(Cl)cc(Cl)c3)(C(F)(F)F)C2)c2c1CCCC2` (stereo partly drawn) [Example 32, 3-(5-(3,5-dichlorophenyl)-5-(trifluoromethyl)-4,5-dihydroisoxazol-3-yl)-N—((R)-2-oxopyrrolidin-3-yl)-4,5,6,7-tetrahydrobenzo[c]thiophene-1-carboxamide]: the mortality at 300 µM is no less than 80%.
Take `O=C(CNC(=O)c1sc(C2=NOC(c3cc(Cl)cc(Cl)c3)(C(F)(F)F)C2)c2c1CCC2)NCC(F)(F)F` (stereo not shown) [Example 36, 3-(5-(3,5-dichloro-phenyl)-5-(trifluoro-methyl)-4,5-dihydro-isoxazol-3-yl)-N-(2-oxo-2-(2,2,2-trifluoroethylamino)ethyl)-5,6-dihydro-4H-cyclopenta[c] thiophene-1-carboxamide]: the mortality at 300 µM is no less than 80%.
As for `O=C(NC1CS(=O)(=O)C1)c1sc(C2=NOC(c3cc(Cl)cc(Cl)c3)(C(F)(F)F)C2)c2c1CCCC2` (stereo not shown) [Example 37, 3-[5-(3,5-Dichloro-phenyl)-5-trifluoro-methyl-4,5-dihydro-isoxazol-3-yl]-4,5,6,7-tetrahydro-benzo[c] thiophene-1-carboxylic acid (1,1-dioxo-thietan-3-yl)-amide], the mortality at 300 µM is no less than 80%.
Regarding `O=C1CCCC(NC(=O)c2sc(C3=NOC(c4cc(Cl)cc(Cl)c4)(C(F)(F)F)C3)c3c2CCCC3)C1` (stereo not shown) [Example 38, 3-(5-(3,5-dichloro-phenyl)-5-(trifluoro-methyl)-4,5-dihydro-isoxazol-3-yl)-N-(3-oxocyclohexyl)-4,5,6,7-tetrahydrobenzo [c]thiophene-1-carboxamide], the mortality at 300 µM was no less than 80%.
Next, `O=C(NC1CCS(=O)(=O)CC1)c1sc(C2=NOC(c3cc(Cl)cc(Cl)c3)(C(F)(F)F)C2)c2c1CCCC2` (stereo not shown) [Example 39, 3-[5-(3,5-Dichloro-phenyl)-5-trifluoro-methyl-4,5-dihydro-isoxazol-3-yl]-4,5,6,7-tetrahydro-benzo [c]thiophene-1-carboxylic acid (1,1-dioxo-hexahydro-116-thiopyran-4-yl)-amide]: no less than 80%; `O=C(NC1CCN(CC(F)(F)F)C1=O)c1sc(C2=NOC(c3cc(Cl)cc(Cl)c3)(C(F)(F)F)C2)c2c1CCCC2` (stereo not shown) [Example 40, 3-[5-(3,5-Dichloro-phenyl)-5-trifluoro-methyl-4,5-dihydro-isoxazol-3-yl]-4,5,6,7-tetrahydro-benzo[c] thiophene-1-carboxylic acid [2-oxo-1-(2,2,2-trifluoro-ethyl)-pyrrolidin-3-yl]-amide]: no less than 80%.
As for `O=C(N[C@@H]1CCNC1=O)c1sc(C2=NOC(c3cc(Cl)cc(Cl)c3)(C(F)(F)F)C2)c2c1CCC2` (stereo partly drawn) [Example 41, 3-(5-(3,5-dichloro-phenyl)-5-(trifluoro-methyl)-4,5-dihydro-isoxazol-3-yl)-N-((R)-2-oxopyrrolidin-3-yl)-5,6-dihydro-4H-cyclopenta[c] thiophene-1-carboxamide], the mortality at 300 µM was no less than 80%.
Next, `N#CCNC(=O)CNC(=O)c1sc(C2=NOC(c3cc(Cl)cc(Cl)c3)(C(F)(F)F)C2)c2c1CCC2` (stereo not shown) [Example 42, N-(2-(cyanomethyl-amino)-2-oxoethyl)-3-(5-(3,5-dichlorophenyl)-5-(trifluoromethyl)-4,5-dihydroisoxazol-3-yl)-5,6-dihydro-4H-cyclopenta[c]thiophene-1-carboxamide]: no less than 80%; `C#CCNC(=O)CNC(=O)c1sc(C2=NOC(c3cc(Cl)cc(Cl)c3)(C(F)(F)F)C2)c2c1CCC2` (stereo not shown) [Example 43, 3-(5-(3,5-dichloro-phenyl)-5-(trifluoro-methyl)-4,5-dihydro-isoxazol-3-yl)-N-(2-oxo-2-(prop-2-ynylamino)ethyl)-5,6-dihydro-4H-cyclopenta[c] thiophene-1-carboxamide]: no less than 80%.
Turning to `O=C(CNC(=O)c1sc(C2=NOC(c3cc(Cl)c(Cl)c(Cl)c3)(C(F)(F)F)C2)c2c1CCCC2)NCC(F)(F)F` (stereo not shown) [Example 44, N-(2-oxo-2-(2,2,2-trifluoroethylamino)ethyl)-3-(5-(3,4,5-trichlorophenyl)-5-(trifluoromethyl)-4,5-dihydroisoxazol-3-yl)-4,5,6,7-tetrahydrobenzo [c]thiophene-1-carboxamide], the mortality at 300 µM was no less than 80%.
For `O=C(N[C@@H]1CCNC1=O)c1sc(C2=NOC(c3cc(Cl)c(Cl)c(Cl)c3)(C(F)(F)F)C2)c2c1CCCC2` (stereo partly drawn) [Example 45, N-((R)-2-oxopyrrolidin-3-yl)-3-(5-(3,4,5-trichlorophenyl)-5-(trifluoromethyl)-4,5-dihydroisoxazol-3-yl)-4,5,6,7-tetrahydrobenzo [c]thiophene-1-carboxamide], the mortality at 300 µM is no less than 80%.
Regarding `N#CCNC(=O)CNC(=O)c1sc(C2=NOC(c3cc(Cl)c(Cl)c(Cl)c3)(C(F)(F)F)C2)c2c1CCCC2` (stereo not shown) [Example 46, N-(2-(cyanomethyl-amino)-2-oxoethyl)-3-(5-(3,4,5-trichloro-phenyl)-5-(trifluoro-methyl)-4,5-dihydro-isoxazol-3-yl)-4,5,6,7-tetrahydrobenzo [c]thiophene-1-carboxamide], the mortality at 300 µM is no less than 80%.
Take `C#CCNC(=O)CNC(=O)c1sc(C2=NOC(c3cc(Cl)c(Cl)c(Cl)c3)(C(F)(F)F)C2)c2c1CCCC2` (stereo not shown) [Example 47, N-(2-oxo-2-(prop-2-ynylamino)ethyl)-3-(5-(3,4,5-trichlorophenyl)-5-(trifluoromethyl)-4,5-dihydroisoxazol-3-yl)-4,5,6,7-tetrahydro-benzo[c]thiophene-1-carboxamide]: the mortality at 300 µM is no less than 80%.
As to `O=C(CNC(=O)c1sc(C2=NOC(c3cc(Cl)c(F)c(Cl)c3)(C(F)(F)F)C2)c2c1CCCC2)NCC(F)(F)F` (stereo not shown) [Example 48, 3-(5-(3,5-dichloro-4-fluorophenyl)-5-(trifluoromethyl)-4,5-dihydroisoxazol-3-yl)-N-(2-oxo-2-(2,2,2-trifluoroethyl-amino)ethyl)-4,5,6,7-tetrahydrobenzo [c]thiophene-1-carboxamide], the mortality at 300 µM was no less than 80%.
Regarding `O=C(N[C@@H]1CCNC1=O)c1sc(C2=NOC(c3cc(Cl)c(F)c(Cl)c3)(C(F)(F)F)C2)c2c1CCCC2` (stereo partly drawn) [Example 49, 3-(5-(3,5-dichloro-4-fluorophenyl)-5-(trifluoromethyl)-4,5-dihydroisoxazol-3-yl)-N-((R)-2-oxopyrrolidin-3-yl)-4,5,6,7-tetrahydro-benzo[c]thiophene-1-carboxamide], the mortality at 300 µM is no less than 80%.
For `N#CCNC(=O)CNC(=O)c1sc(C2=NOC(c3cc(Cl)c(F)c(Cl)c3)(C(F)(F)F)C2)c2c1CCCC2` (stereo not shown) [Example 50, N-(2-(cyanomethyl-amino)-2-oxoethyl)-3-(5-(3,5-dichloro-4-fluorophenyl)-5-(trifluoromethyl)-4,5-dihydroisoxazol-3-yl)-4,5,6,7-tetrahydrobenzo [c]thiophene-1-carboxamide], the mortality at 300 µM was no less than 80%.
For the compound `C#CCNC(=O)CNC(=O)c1sc(C2=NOC(c3cc(Cl)c(F)c(Cl)c3)(C(F)(F)F)C2)c2c1CCCC2` (stereo not shown) [Example 51, 3-(5-(3,5-dichloro-4-fluorophenyl)-5-(trifluoromethyl)-4,5-dihydroisoxazol-3-yl)-N-(2-oxo-2-(prop-2-ynylamino)ethyl)-4,5,6,7-tetrahydro-benzo[c]thiophene-1-carboxamide], the mortality at 300 µM is no less than 80%.
For `O=C(CNC(=O)c1sc(C2=NOC(c3cc(Cl)c(Cl)c(Cl)c3)(C(F)(F)F)C2)c2c1CCC2)NCC(F)(F)F` (stereo not shown) [Example 52, N-(2-oxo-2-(2,2,2-trifluoroethylamino)ethyl)-3-(5-(3,4,5-trichlorophenyl)-5-(trifluoromethyl)-4,5-dihydroisoxazol-3-yl)-5,6-dihydro-4H-cyclopenta[c] thiophene-1-carboxamide], the mortality at 300 µM was no less than 80%.
On to `O=C(N[C@@H]1CCNC1=O)c1sc(C2=NOC(c3cc(Cl)c(Cl)c(Cl)c3)(C(F)(F)F)C2)c2c1CCC2` (stereo partly drawn) [Example 53, N-((R)-2-oxopyrrolidin-3-yl)-3-(5-(3,4,5-trichlorophenyl)-5-(trifluoromethyl)-4,5-dihydroisoxazol-3-yl)-5,6-dihydro-4H-cyclopenta[c] thiophene-1-carboxamide], for which the mortality at 300 µM is no less than 80%.
As to `N#CCNC(=O)CNC(=O)c1sc(C2=NOC(c3cc(Cl)c(Cl)c(Cl)c3)(C(F)(F)F)C2)c2c1CCC2` (stereo not shown) [Example 54, N-(2-(cyanomethyl-amino)-2-oxoethyl)-3-(5-(3,4,5-trichloro-phenyl)-5-(trifluoro-methyl)-4,5-dihydro-isoxazol-3-yl)-5,6-dihydro-4H-cyclo-penta[c]thiophene-1-carboxamide], the mortality at 300 µM is no less than 80%.
As for `C#CCNC(=O)CNC(=O)c1sc(C2=NOC(c3cc(Cl)c(Cl)c(Cl)c3)(C(F)(F)F)C2)c2c1CCC2` (stereo not drawn) [Example 55, N-(2-oxo-2-(prop-2-ynylamino)ethyl)-3-(5-(3,4,5-trichlorophenyl)-5-(trifluoromethyl)-4,5-dihydroisoxazol-3-yl)-5,6-dihydro-4H-cyclo-penta[c]thiophene-l-carboxamide], the mortality at 300 µM is no less than 80%.
As for `O=C(NC1CCN(CC(F)(F)F)C1=O)c1sc(C2=NOC(c3cc(Cl)c(Cl)c(Cl)c3)(C(F)(F)F)C2)c2c1CCC2` (stereo not shown) [Example 56, N-(2-oxo-1-(2,2,2-trifluoroethyl)pyrrolidin-3-yl)-3-(5-(3,4,5-trichlorophenyl)-5-(trifluoromethyl)-4,5-dihydroisoxazol-3-yl)-5,6-dihydro-4H-cyclopenta[c] thiophene-1-carboxamide], the mortality at 300 µM was no less than 80%.
